Our source for the IC50 values is the Kinase Knowledgebase extract (Sharma et al. 2016).

The test deals with ROCK2 (human) (UniProt O75116). Put plainly: Inhibition of ROCK2 Kinase Activity.
ROCK2 (human), sequence (O75116 whole entry, looked up): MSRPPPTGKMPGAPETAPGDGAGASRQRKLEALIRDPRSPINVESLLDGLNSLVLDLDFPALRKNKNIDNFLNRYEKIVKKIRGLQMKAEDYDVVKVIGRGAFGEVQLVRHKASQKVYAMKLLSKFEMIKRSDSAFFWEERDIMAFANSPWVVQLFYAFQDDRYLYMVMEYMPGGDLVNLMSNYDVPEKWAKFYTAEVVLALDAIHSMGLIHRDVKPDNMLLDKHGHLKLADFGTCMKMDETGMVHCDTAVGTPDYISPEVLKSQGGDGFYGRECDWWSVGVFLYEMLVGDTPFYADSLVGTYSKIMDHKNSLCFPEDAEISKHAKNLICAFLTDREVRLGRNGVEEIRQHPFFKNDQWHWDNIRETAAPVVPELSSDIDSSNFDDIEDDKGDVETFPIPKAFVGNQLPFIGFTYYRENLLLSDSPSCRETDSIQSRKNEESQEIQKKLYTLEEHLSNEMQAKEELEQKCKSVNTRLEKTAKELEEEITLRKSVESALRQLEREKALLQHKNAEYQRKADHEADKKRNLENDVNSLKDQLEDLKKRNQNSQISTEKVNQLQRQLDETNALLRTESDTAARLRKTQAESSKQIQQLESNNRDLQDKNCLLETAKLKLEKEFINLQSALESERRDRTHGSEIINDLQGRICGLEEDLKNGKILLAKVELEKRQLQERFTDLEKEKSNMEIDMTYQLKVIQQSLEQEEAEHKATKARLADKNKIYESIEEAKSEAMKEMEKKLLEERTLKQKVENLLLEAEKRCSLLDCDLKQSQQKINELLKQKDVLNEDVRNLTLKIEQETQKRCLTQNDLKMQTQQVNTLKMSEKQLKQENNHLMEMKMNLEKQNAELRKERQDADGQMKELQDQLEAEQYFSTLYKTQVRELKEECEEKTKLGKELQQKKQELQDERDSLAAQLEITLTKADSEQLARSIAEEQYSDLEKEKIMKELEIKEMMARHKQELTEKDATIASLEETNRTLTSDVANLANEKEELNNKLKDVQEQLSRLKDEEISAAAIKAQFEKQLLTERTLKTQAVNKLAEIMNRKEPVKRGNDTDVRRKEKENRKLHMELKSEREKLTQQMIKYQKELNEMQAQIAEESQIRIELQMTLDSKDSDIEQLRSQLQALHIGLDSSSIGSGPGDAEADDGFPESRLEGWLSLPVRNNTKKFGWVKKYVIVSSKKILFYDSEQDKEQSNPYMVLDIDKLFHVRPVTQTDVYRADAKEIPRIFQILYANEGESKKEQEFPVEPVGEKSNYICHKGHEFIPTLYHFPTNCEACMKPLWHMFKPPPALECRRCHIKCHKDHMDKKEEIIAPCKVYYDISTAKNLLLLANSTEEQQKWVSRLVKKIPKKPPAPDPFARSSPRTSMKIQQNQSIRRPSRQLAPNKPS
As for `Cc1ccc(C)c(C(=O)NCc2nc(-c3ccncc3)n[nH]2)c1`, the IC50 (in general, the concentration needed to halve the response being measured) was greater than 5 µM.

Turning to `O=C(NCc1nc(-c2c[nH]c3ncccc23)n[nH]1)c1cccnc1Cl`, the half-maximal inhibitory concentration (IC50) was greater than 5 µM.

Compound `COc1cccc(O)c1C(=O)NCc1nc(-c2c[nH]c3ncccc23)n[nH]1` showed a 50% inhibitory concentration (IC50) greater than 5 µM.

As to `O=Cc1ccccc1OCC(=O)NCc1nc(-c2ccncc2)n[nH]1`, the 50% inhibitory concentration (IC50) is greater than 5 µM.

For the compound `O=C(C=Cc1ccccc1C(F)(F)F)NCc1nc(-c2ccncc2)n[nH]1`, the 50% inhibitory concentration (IC50) is greater than 5 µM.

`O=C(NCc1nc(-c2c[nH]c3ncccc23)n[nH]1)c1ccccc1Oc1ccccc1`: the 50% inhibitory concentration (IC50) was greater than 5 µM.

`CC(=O)NC(Cc1ccc(O)cc1)C(=O)NCc1nc(-c2c[nH]c3ncccc23)n[nH]1` (stereo unspecified) displayed an IC50 greater than 5 µM.

On to `Cc1cccc(C(=O)NCc2nc(-c3ccncc3)c[nH]2)c1O`, for which the concentration for half-maximal inhibition (IC50) was no more than 5 µM.

In the case of `O=C(NCc1nc(-c2ccncc2)n[nH]1)c1ccc2cccc(O)c2n1`, the 50% inhibitory concentration (IC50) is greater than 5 µM.

`Cc1cccc([N+](=O)[O-])c1C(=O)NCc1nc(-c2ccncc2)n[nH]1`: the IC50 was greater than 5 µM.

Consider `O=C(NCc1nc(-c2c[nH]c3ncccc23)n[nH]1)c1csc2ccccc12`, for which the half-maximal inhibitory concentration (IC50) was greater than 5 µM.

The compound `COc1cccc(C(=O)NCc2nc(-c3c[nH]c4ncccc34)n[nH]2)c1OC` showed an IC50 greater than 5 µM.

In turn, `Cc1nc(Br)sc1C(=O)NCc1nc(-c2c[nH]c3ncccc23)n[nH]1` came in with an IC50 greater than 5 µM.

On to `O=C(NCc1nc(-c2ccncc2)n[nH]1)c1ccccc1C(F)(F)F`, for which the IC50 was greater than 5 µM.

In turn, `O=C(NCc1nc(-c2ccncc2)n[nH]1)c1nccs1` had a half-inhibitory concentration (IC50) of no more than 5 µM.

`O=C(NCc1nc(-c2c[nH]c3ncccc23)n[nH]1)c1cc(Cl)ccc1Cl` displayed an IC50 greater than 5 µM.

Consider `O=C(NCc1nc(-c2c[nH]c3ncccc23)n[nH]1)c1cccc(F)c1F`, for which the IC50 is greater than 5 µM.

In the case of `O=C(NCc1nc(-c2ccncc2)n[nH]1)c1cccnc1`, the IC50 was greater than 5 µM.

Compound `O=C(NCc1nc(-c2c[nH]c3ncccc23)n[nH]1)c1ccc2cccc(O)c2n1` yielded a half-inhibitory concentration (IC50) greater than 5 µM.

For the compound `CC(NC(=O)c1ccc(O)cc1O)c1nc(-c2ccncc2)n[nH]1` (stereo unspecified), the IC50 is no more than 5 µM.

`O=C(NCc1nc(-c2ccncc2)n[nH]1)c1cc(F)c(Cl)cc1F` displayed an IC50 greater than 5 µM.

`COc1cc(C(=O)NCc2nc(-c3c[nH]c4ncccc34)n[nH]2)cc(OC)c1O` displayed an IC50 greater than 5 µM.

Compound `Cc1ccc(SCC(=O)NCc2nc(-c3c[nH]c4ncccc34)n[nH]2)cc1` yielded a 50% inhibitory concentration (IC50) greater than 5 µM.

Consider `CCCCCCCC(=O)NCc1nc(-c2c[nH]c3ncccc23)n[nH]1`, for which the half-inhibitory concentration (IC50) was greater than 5 µM.

`O=C(NCc1nc(-c2ccncc2)n[nH]1)c1cc2ccccc2s1` registered an IC50 of no more than 5 µM.

On to `O=C(NCc1nc(-c2c[nH]c3ncccc23)n[nH]1)c1cc2cc(Cl)ccc2o1`, for which the 50% inhibitory concentration (IC50) was greater than 5 µM.

`O=C(NCc1nc(-c2c[nH]c3ncccc23)n[nH]1)c1ccc(Cl)cc1O` returned an IC50 greater than 5 µM.

As for `O=C(NCc1nc(-c2ccncc2)n[nH]1)c1cncc(Br)c1`, the IC50 is greater than 5 µM.

Take `CC(=O)c1ccccc1C(=O)NCc1nc(-c2ccncc2)n[nH]1`: the IC50 is greater than 5 µM.

Consider `Cc1cc(C)c(C(=O)NCc2nc(-c3ccncc3)n[nH]2)c(C)c1`, for which the IC50 was greater than 5 µM.

Regarding `O=C(C=Cc1ccc2c(c1)OCO2)NCc1nc(-c2ccncc2)n[nH]1`, the 50% inhibitory concentration (IC50) is greater than 5 µM.

With `O=C(Cc1c(F)cccc1F)NCc1nc(-c2c[nH]c3ncccc23)n[nH]1`, the IC50 is greater than 5 µM.

Regarding `Cc1ccccc1CCC(=O)NCc1nc(-c2ccncc2)n[nH]1`, the IC50 is greater than 5 µM.

For `CC(NC(=O)c1cccs1)c1nc(-c2ccncc2)n[nH]1` (stereo unspecified), the half-maximal inhibitory concentration (IC50) is no more than 5 µM.

On to `Cc1ccccc1CCC(=O)NCc1nc(-c2c[nH]c3ncccc23)n[nH]1`, for which the half-inhibitory concentration (IC50) is greater than 5 µM.

Compound `O=C(CCc1nc2ccccc2[nH]1)NCc1nc(-c2ccncc2)n[nH]1` returned an IC50 greater than 5 µM.

`O=C(NCc1nc(-c2c[nH]c3ncccc23)n[nH]1)c1ncc[nH]1`: the IC50 was greater than 5 µM.

With `O=C(NCc1nc(-c2c[nH]c3ncccc23)n[nH]1)c1cc(F)c(F)cc1[N+](=O)[O-]`, the 50% inhibitory concentration (IC50) is greater than 5 µM.

`CC(C)c1cccc(C(=O)NCc2nc(-c3ccncc3)n[nH]2)c1O` showed an IC50 of no more than 5 µM.

The compound `O=C(NCc1nc(-c2c[nH]c3ncccc23)n[nH]1)c1cc(F)cc(F)c1` showed an IC50 greater than 5 µM.

`Cn1nc(-c2ccncc2)nc1CNC(=O)c1cccs1` came in with a half-maximal inhibitory concentration (IC50) greater than 5 µM.

For the compound `O=C(NCc1nc(-c2c[nH]c3ncccc23)n[nH]1)c1ccccc1C(=O)c1ccc(O)cc1`, the half-inhibitory concentration (IC50) was greater than 5 µM.

Take `Cc1cccc(C(=O)NCc2c[nH]c(-c3ccncc3)n2)c1O`: the IC50 was greater than 5 µM.

`CN(Cc1nc(-c2ccncc2)n[nH]1)C(=O)c1ccc(O)cc1O`: the IC50 was greater than 5 µM.

Compound `CC(C(=O)NCc1nc(-c2c[nH]c3ncccc23)n[nH]1)c1ccc(-c2ccccc2)c(F)c1` (stereo unspecified) yielded a concentration for half-maximal inhibition (IC50) greater than 5 µM.

For the compound `O=C(Cc1ccc(C(F)(F)F)cc1)NCc1nc(-c2c[nH]c3ncccc23)n[nH]1`, the IC50 was greater than 5 µM.

In the case of `O=C(NCc1nc(-c2ccncc2)n[nH]1)C1CCCCC1`, the 50% inhibitory concentration (IC50) was greater than 5 µM.

In turn, `O=C(NCc1nc(-c2ccncc2)n[nH]1)c1ccccc1Cl` yielded an IC50 greater than 5 µM.

The compound `O=C(NCc1nc(-c2c[nH]c3ncccc23)n[nH]1)c1ccncc1Cl` showed an IC50 greater than 5 µM.

Turning to `O=C(NCc1nc(-c2ccncc2)n[nH]1)C(O)CCl` (stereo unspecified), the IC50 was greater than 5 µM.

On to `O=C(NCc1nc(-c2ccncc2)n[nH]1)c1cc([N+](=O)[O-])ccc1O`, for which the IC50 is greater than 5 µM.

`COc1ccc(C(=O)NCc2nc(-c3c[nH]c4ncccc34)n[nH]2)c(O)c1` had a half-inhibitory concentration (IC50) greater than 5 µM.

Compound `O=C(NCc1nc(-c2c[nH]c3ncccc23)n[nH]1)c1cnc[nH]1` returned an IC50 greater than 5 µM.

`O=C(NCc1nc(-c2ccncc2)n[nH]1)c1cccc2c1OCC2` displayed a half-maximal inhibitory concentration (IC50) greater than 5 µM.

In turn, `O=C(NCc1nc(-c2ccncc2)n[nH]1)c1cc(Cl)ccc1O` yielded a concentration for half-maximal inhibition (IC50) greater than 5 µM.

`CC(C)CC(=O)NCc1nc(-c2c[nH]c3ncccc23)n[nH]1` yielded a half-maximal inhibitory concentration (IC50) greater than 5 µM.

In turn, `O=C(NCc1nc(-c2c[nH]c3ncccc23)n[nH]1)C1CCc2ccccc21` (stereo unspecified) gave an IC50 greater than 5 µM.

In the case of `Cc1ccc(C(=O)NCc2nc(-c3ccncc3)n[nH]2)s1`, the IC50 was no more than 5 µM.

Take `O=C(NCc1nc(-c2ccncc2)n[nH]1)c1ccc2ncccc2c1`: the 50% inhibitory concentration (IC50) was greater than 5 µM.

On to `O=C(C=Cc1ccccc1F)NCc1nc(-c2c[nH]c3ncccc23)n[nH]1`, for which the IC50 is greater than 5 µM.

Consider `Cc1ccc(C(=O)NCc2nc(-c3c[nH]c4ncccc34)n[nH]2)c(C)c1`, for which the IC50 was greater than 5 µM.

`O=C(O)c1ccc(C(=O)NCc2nc(-c3ccncc3)n[nH]2)cc1` showed a 50% inhibitory concentration (IC50) of no more than 5 µM.

Regarding `O=C(NCc1nc(-c2c[nH]c3ncccc23)n[nH]1)c1ccncc1`, the IC50 was greater than 5 µM.

For the compound `CC(C)(C)OC(=O)NCCCC(NC(=O)c1ccc(O)cc1O)c1nc(-c2ccncc2)n[nH]1` (stereo unspecified), the IC50 is no more than 5 µM.

`COC1=CC(OC)(C(=O)NCc2nc(-c3ccncc3)n[nH]2)C=C1` (stereo unspecified): the IC50 was greater than 5 µM.

`O=C(Cc1cccc(O)c1)NCc1nc(-c2c[nH]c3ncccc23)n[nH]1` registered a concentration for half-maximal inhibition (IC50) greater than 5 µM.

In turn, `O=C(Cc1ccccc1CO)NCc1nc(-c2c[nH]c3ncccc23)n[nH]1` had an IC50 greater than 5 µM.

For `O=C(NCc1nc(-c2ccncc2)n[nH]1)c1ccccc1C(=O)c1ccc(F)cc1`, the IC50 is greater than 5 µM.

Compound `O=C(NCc1nc(-c2c[nH]c3ncccc23)n[nH]1)c1c(Cl)cc(Cl)cc1Cl` had a concentration for half-maximal inhibition (IC50) greater than 5 µM.

`O=C(NCc1nc(-c2ccncc2)n[nH]1)c1cc(O)c(O)c(O)c1` displayed an IC50 greater than 5 µM.

Turning to `O=C(NCc1nc(-c2ccncc2)n[nH]1)c1cccc(Cl)c1O`, the concentration for half-maximal inhibition (IC50) was no more than 5 µM.

As to `Cc1cc(C)c(C(=O)NCc2nc(-c3c[nH]c4ncccc34)n[nH]2)c(C)c1`, the IC50 was greater than 5 µM.

The compound `O=C(NCc1nc(-c2ccncc2)n[nH]1)C1CCCN1C(=O)OCc1ccccc1` (stereo unspecified) showed a half-inhibitory concentration (IC50) greater than 5 µM.

Regarding `O=C(NCc1nc(-c2c[nH]c3ncccc23)n[nH]1)C1=CCCC1`, the IC50 is greater than 5 µM.

As to `O=C(NCc1nc(-c2c[nH]c3ncccc23)n[nH]1)c1c2ccccc2cc2ccccc12`, the IC50 is greater than 5 µM.

In turn, `O=C(NCc1nc(-c2ccncc2)n[nH]1)c1ccncc1-c1ccccc1` gave an IC50 greater than 5 µM.

`O=C(NCc1nc(-c2c[nH]c3ncccc23)n[nH]1)c1cc2ccccc2o1` came in with an IC50 greater than 5 µM.

Consider `Cc1ccc(C(=O)NCc2nc(-c3ccncc3)n[nH]2)cc1F`, for which the IC50 is greater than 5 µM.

On to `CC(=O)NCc1nc(-c2c[nH]c3ncccc23)n[nH]1`, for which the IC50 was greater than 5 µM.

Take `O=C(NCc1nc(-c2c[nH]c3ncccc23)n[nH]1)c1ccccc1C(=O)c1ccc(F)cc1`: the IC50 was greater than 5 µM.

For `CC(C)(C)C(=O)Oc1ccc(C(=O)NCc2nc(-c3ccncc3)n[nH]2)cc1`, the IC50 is greater than 5 µM.

Compound `COc1ccc(C(=O)NCc2nc(-c3ccncc3)n[nH]2)cc1O` returned a 50% inhibitory concentration (IC50) greater than 5 µM.

Take `O=C(NCc1nc(-c2c[nH]c3ncccc23)n[nH]1)c1cc(O)c(O)c(O)c1`: the IC50 was greater than 5 µM.

In the case of `c1ccc(COc2ccc(CNCc3nc(-c4ccncc4)n[nH]3)cc2)cc1`, the half-inhibitory concentration (IC50) is greater than 5 µM.

`CC(=O)Nc1cccc(C(=O)NCc2nc(-c3ccncc3)n[nH]2)c1` showed a concentration for half-maximal inhibition (IC50) greater than 5 µM.

Regarding `CC(C(=O)NCc1nc(-c2ccncc2)n[nH]1)c1ccc(O)cc1` (stereo unspecified), the IC50 is greater than 5 µM.

Compound `O=C(CCc1nc(-c2ccncc2)n[nH]1)c1ccc(O)cc1` gave a half-maximal inhibitory concentration (IC50) of no more than 5 µM.

In turn, `O=C(NCc1nc(-c2ccncc2)n[nH]1)c1cscn1` showed an IC50 greater than 5 µM.

`O=C(CCc1cccc(Br)c1)NCc1nc(-c2ccncc2)n[nH]1`: the IC50 was greater than 5 µM.

As to `O=C(NCc1nc(-c2c[nH]c3ncccc23)n[nH]1)c1ccnc(Cl)c1`, the IC50 is greater than 5 µM.

For `CC(=O)Oc1ccc(C(=O)NCc2nc(-c3ccncc3)n[nH]2)c(O)c1`, the 50% inhibitory concentration (IC50) is no more than 5 µM.

Turning to `CCCOc1ccc(C(=O)NCc2nc(-c3ccncc3)n[nH]2)cc1`, the half-inhibitory concentration (IC50) is greater than 5 µM.

Regarding `O=C(NCc1nc(-c2ccncc2)n[nH]1)c1ccc(F)cc1`, the 50% inhibitory concentration (IC50) was greater than 5 µM.

In turn, `O=C(NCc1nc(-c2c[nH]c3ncccc23)n[nH]1)c1cccs1` yielded an IC50 of no more than 5 µM.

Compound `O=C(NCc1nc(-c2c[nH]c3ncccc23)n[nH]1)c1cscn1` returned an IC50 greater than 5 µM.

Compound `O=C(NCc1nc(-c2ccncc2)n[nH]1)C(F)(F)F` yielded an IC50 greater than 5 µM.
